Values of other authors in patent US20140186466A1, “NEUTRACEUTICAL FORMULATION FOR TREATMENT OF DIABETES” (Creative Medical Health Inc., priority 2012, published 2014).
Read-outs that look alike come from different tables or passages of the source.

Legend:
patients with diabetes [1] = conditions: 2000 IU/daily for 18 months
patients with diabetes [2] = conditions: 500 mg or 1000 mg three times a day, 52 weeks
tissue uptake of glucose = conditions: healthy patients and patients with type 2 diabetes
[3] = system: patients with type 2 diabetes; conditions: 57 patients, 300 mg daily or placebo, eight weeks
type 1 diabetic patients = conditions: 51 type 1 diabetic patients; 600 mg once daily, 5 weeks
peripheral neuropathy = conditions: intravenously 600 mg/day over 3 weeks
[4] = system: patients with hypertension; conditions: 60 patients with hypertension; 20 mmol/d, 8 weeks
mesenteric vascular bed = conditions: STZ diabetic rats; 10 g/L in drinking water, 8 weeks; intact and denuded endothelium
[5] = system: streptozotocin diabetic rats; conditions: 10 g/l in drinking water, eight weeks
[6] = system: skin microvasculature of diabetic rats; conditions: streptozotocin-diabetic male Wistar rats; 10 g/l in drinking water
[7] = in vivo
dipeptidyl peptidase-IV = dipeptidyl peptidase-IV (Homo sapiens, UniProt P27487)
Sequence of dipeptidyl peptidase-IV (P27487 whole entry, species assumed): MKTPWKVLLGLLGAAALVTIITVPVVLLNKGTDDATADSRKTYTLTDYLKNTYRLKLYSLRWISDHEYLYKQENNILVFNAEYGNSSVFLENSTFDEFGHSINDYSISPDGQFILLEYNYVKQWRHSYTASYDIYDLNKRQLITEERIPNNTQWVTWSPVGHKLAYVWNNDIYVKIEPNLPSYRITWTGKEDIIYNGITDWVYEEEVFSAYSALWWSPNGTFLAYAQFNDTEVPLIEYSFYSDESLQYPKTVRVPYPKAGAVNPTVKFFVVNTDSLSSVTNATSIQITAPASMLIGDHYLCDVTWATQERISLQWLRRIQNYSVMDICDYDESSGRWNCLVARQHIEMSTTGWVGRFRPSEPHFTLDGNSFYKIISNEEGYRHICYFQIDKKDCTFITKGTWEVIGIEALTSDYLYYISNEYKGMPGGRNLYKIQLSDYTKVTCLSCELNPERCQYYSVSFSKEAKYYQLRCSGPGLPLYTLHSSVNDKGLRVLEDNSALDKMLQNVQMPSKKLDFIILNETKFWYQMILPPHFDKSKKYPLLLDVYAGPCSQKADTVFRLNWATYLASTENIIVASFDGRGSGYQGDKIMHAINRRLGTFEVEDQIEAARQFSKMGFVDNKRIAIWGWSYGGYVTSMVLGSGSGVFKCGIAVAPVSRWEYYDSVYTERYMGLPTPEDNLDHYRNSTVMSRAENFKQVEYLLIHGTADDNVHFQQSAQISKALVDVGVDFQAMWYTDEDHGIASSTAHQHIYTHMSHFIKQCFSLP

diabetic rat brains = conditions: 0.6 mg/mL in drinking water, 4 weeks
diabetic rats [8] = conditions: 100 mg/kg, 60 days
HIV-positive subjects = conditions: 1000 µg/day, eight weeks
diabetic rats [9] = system: diabetic rats
[10] = system: inflammatory pathways involved in diabetic nephropathy; conditions: rat model; 22 micrograms in water for 12 weeks (8 mcg/day)
[11] = system: ischemia-reperfusion insult in rats; conditions: 10 mg chromium/kg diet for six weeks
[12] = system: Streptozotocin-induced diabetic animals; conditions: 4 weeks
[13] = diabetic rats, 1 mg/kg body weight

Question: Which serum lipid profiles (patients with diabetes [1]) does the source give for `C=C1CC[C@H](O)C/C1=C/C=C1\CCC[C@]2(C)[C@@H]([C@H](C)CCCC(C)C)CC[C@@H]12` [Vitamin D3] here?
Answer: The serum lipid profiles was “beneficial effects”.

Question: For `CC(=O)O[C@H](CC(=O)[O-])C[N+](C)(C)C` [acetyl-L-carnitine], which nerve fiber regeneration (patients with diabetes [2]) is on record?
Answer: Its nerve fiber regeneration is “improvements”.

Question: What about the neuropathic pain (patients with diabetes [2]) of the same compound?
Answer: The neuropathic pain was “symptomatic relief”.

Question: And the “tissue uptake of glucose” value (tissue uptake of glucose)?
Answer: Its value is “dose-dependent effects”.

Question: For `O=C(O)CCCCC1CCSS1` (stereo not drawn) [alpha lipoic acid], which “fasting blood glucose levels” value [3] is on record?
Answer: Its value is “reduced”.

Question: What about the “measures of platelet reactivity” value (type 1 diabetic patients) of the same compound?
Answer: Its value is “reduced”.

Question: And the neuropathic pain (peripheral neuropathy)?
Answer: Its neuropathic pain is “clinically relevant reduction”.

Question: Which results are given for `[O]=[Mg]` [magnesium oxide]?
Answer: ambulatory BP reduction, first value of the pair [4]: 2.5 mm Hg; ambulatory BP reduction, second value of the pair [4]: 1.4 mm Hg; home BP decrease, first value of the pair [4]: 2.0 mm Hg; home BP decrease, second value of the pair [4]: 1.4 mm Hg; office BP fall, first value of the pair [4]: 3.7 mm Hg; office BP fall, second value of the pair [4]: 1.7 mm Hg

Question: For `O=S(=O)([O-])[O-].[Mg+2]` [magnesium sulfate], which “mean perfusion pressure of mesenteric vascular bed” value (mesenteric vascular bed) is on record?
Answer: Its value is “decrease”.

Question: What about the plasma glucose ([5]; STZ 40 mg/kg i.v. diabetic rats) of the same compound?
Answer: The plasma glucose was “to normal levels”.

Question: And the “high density lipoprotein (HDL)” value ([5]; STZ diabetic rats)?
Answer: The value was “to normal levels”.

Question: What about the “low density lipoprotein (LDL)” value ([5]; STZ diabetic rats) of the same compound?
Answer: The value was “to normal levels”.

Question: And the “mesenteric fat/body weight ratio” value ([5]; STZ diabetic rats)?
Answer: Its value is “reductions”.

Question: And the systolic blood pressure ([5]; STZ diabetic rats)?
Answer: The systolic blood pressure was “to normal levels”.

Question: And the total cholesterol ([5]; STZ diabetic rats)?
Answer: The total cholesterol was “to normal levels”.

Question: What about the triglyceride ([5]; STZ diabetic rats) of the same compound?
Answer: Its triglyceride is “to normal levels”.

Question: What about the “very low density lipoprotein (VLDL)” value ([5]; STZ diabetic rats) of the same compound?
Answer: The value was “to normal levels”.

Question: And the “endothelial relaxation stimulated with acetylcholine (Ach) or sodium nitroprusside (SNP)” value [6]?
Answer: Its value is “enhanced”.

Question: For `CN(C)C(=N)N=C(N)N` [metformin, Metformin], which glucose utilization [7] is on record?
Answer: The glucose utilization was “increased”.

Question: And the leptin concentrations [7]?
Answer: Its leptin concentrations is “reduction”.

Question: What about the “dipeptidyl peptidase-IV activity” value (dipeptidyl peptidase-IV) of the same compound?
Answer: The value was “inhibition”.

Question: Which “ischemic injury in diabetic rat brains” value (diabetic rat brains) does the source give for `[Na+].[Na+].[Na+].[O]=[V]([O-])([O-])[O-]` [sodium orthovanadate] here?
Answer: Its value is “significantly reduced”.

Question: And the neurobehavioral function (diabetic rat brains)?
Answer: Its neurobehavioral function is “improved”.

Question: With `O=S(=O)([O-])[O-].[O]=[V+2]` [vanadyl sulfate] as the compound, how does the blood glucose levels (diabetic rats [8]) read?
Answer: Its blood glucose levels is “lower”.

Question: And the “serum antioxidant enzyme levels in muscle tissue” value (diabetic rats [8])?
Answer: The value was “decrease”.

Question: Which “mean rate of glucose disposal after treatment” value (HIV-positive subjects; eight HIV-positive subjects on antiretroviral therapy, before 4.41, range 3.19-12.78, p=0.03) does the source give for chromium picolinate here?
Answer: The value was 6.51 mg/kg LBM/min.

Question: And the “increase of mean rate of glucose disposal” value (HIV-positive subjects; eight HIV-positive subjects)?
Answer: The value was 25%.

Question: What about the “elevated hepatic and cerebral free fatty acids and malondialdehyde” value (diabetic rats [9]; high dose 13.20 μg Cr kg(−1) day(−1), relative to control (non-diabetic) levels) of the same compound?
Answer: The value was “nearly normalized”.

Question: What about the “elevated hepatic and cerebral free fatty acids and malondialdehyde” value (diabetic rats [9]; low (human equivalent) dose 2.90 μg Cr kg(−1) day(−1)) of the same compound?
Answer: Its value is “significantly reduced”.

Question: What about the “activity of inflammatory pathways involved in diabetic nephropathy” value [10] of the same compound?
Answer: Its value is “reducing the activity”.

Question: What about the “myocardial contractility and relaxation following ischemia-reperfusion insult” value [11] of the same compound?
Answer: The value was “recovery”.

Question: What about the plasma glucose levels ([12]; 1 mg/kg body weight daily) of the same compound?
Answer: The plasma glucose levels was “lowered”.

Question: What about the “weight loss in diabetic animals” value ([12]; 1 mg/kg body weight daily) of the same compound?
Answer: The value was “increased”.

Question: What about the “glycogen content in the livers” value ([12]; 1 mg/kg body weight daily, to near control levels) of the same compound?
Answer: Its value is “normalized”.

Question: What about the action of insulin [12, 13] of the same compound?
Answer: The action of insulin was “potentiate”.

Question: And the plasma cholesterol levels [12, 13]?
Answer: The plasma cholesterol levels was “lower”.

Question: And the plasma triglyceride levels [12, 13]?
Answer: The plasma triglyceride levels was “lower”.
